Measured values published in patent US6407247B1, “Photo-stable cosmetic and pharmaceutical formulations containing UV-filters” (BASF Aktiengesellschaft, priority 1996, dated 2002).

Assays:
[1] = UV absorption of the compounds of Table 2 (absorption maximum and specific extinction); assay type: physicochemical; parameters: λmax: unit not given beside the values; details: for λmax: UV absorption maximum; for E^11: specific extinction at λmax
[2] = used alone or in combination with UV-B filters; cited from earlier work

| Structure (SMILES) | λmax ([1]; Table 2) | E^11 ([1]; Table 2) | E^11 ([1]; Table 2, (water)) | photochemical stability [2] |
| --- | --- | --- | --- | --- |
| CCCCC(CC)COC(=O)c1ccc(NC=C(C#N)C(=O)C(C)(C)C)cc1 (stereo not drawn) [Compound 1] | 346 | 860 | – | – |
| Cc1cccc(NC=C(C#N)C(=O)C(C)(C)C)c1 [Compound 2] | 338 | 978 | – | – |
| COc1ccc(NC=C(C#N)C(=O)C(C)(C)C)cc1 [Compound 3] | 348 | 841 | – | – |
| CC(C)(C)C(=O)C(C#N)=CNc1ccc(C(C)(C)C)cc1 [Compound 4] | 342 | 888 | – | – |
| CCCCc1ccc(NC=C(C#N)C(=O)C(C)(C)C)cc1 [Compound 5] | 342 | 884 | – | – |
| CCCCC(CC)CNC(=O)c1ccc(NC=C(C#N)C(=O)C(C)(C)C)cc1 (stereo not drawn) [Compound 6] | 346 | 773 | – | – |
| CC(C)c1ccc(NC=C(C#N)C(=O)C(C)(C)C)cc1 [Compound 7] | 342 | 903 | – | – |
| CCCc1ccc(NC=C(C#N)C(=O)C(C)(C)C)cc1 [Compound 8] | 342 | 918 | – | – |
| CCCCC(CC)COC(=O)c1ccccc1NC=C(C#N)C(=O)C(C)(C)C (stereo not drawn) [Compound 9] | 348 | 717 | – | – |
| CC(C)(C)C(=O)C(C#N)=CNc1ccccc1C#N [Compound 10] | 338 | 995 | – | – |
| CC(C)Oc1cccc(NC=C(C#N)C(=O)C(C)(C)C)c1 [Compound 12] | 340 | 829 | – | – |
| CC(C)(C)C(=O)C(C#N)=CNc1ccccc1C(=O)O.OCCN(CCO)CCO [Compound 13] | 346 | – | 667 (water) | – |
| COc1ccc(OC)c(NC=C(C#N)C(=O)C(C)(C)C)c1 [Compound 14] | 362 | 491 | – | – |
| CC(C)(C)C(=O)C(C#N)=CNc1ccccc1C(=O)O [Compound 15] | 346 | 965 | – | – |
| CC(C)(C)C(=O)C(C#N)=CNc1ccc(S(=O)(=O)O)cc1.OCCN(CCO)CCO [Compound 16] | 340 | – | 666 (water) | – |
| CC(C)(C)C(=O)C(C#N)=CNc1ccc(S(=O)(=O)[O-])cc1.[Na+] [Compound 17] | 340 | – | 1010 (water) | – |
| CCOc1ccccc1NC=C(C#N)C(=O)C(C)(C)C [Compound 18] | 352 | 876 | – | – |
| COC(=O)c1ccccc1NC=C(C#N)C(=O)C(C)(C)C [Compound 19] | 348 | 995 | – | – |
| CC(C)COC(=O)c1ccccc1NC=C(C#N)C(=O)C(C)(C)C [Compound 20] | 348 | 864 | – | – |
| CCCCOC(=O)c1ccccc1NC=C(C#N)C(=O)C(C)(C)C [Compound 21] | 346 | 825 | – | – |
| CCCCOC(=O)c1ccccc1NC=C(C(C)=O)C(C)=O [Compound 25] | 344 | 938 | – | – |
| COc1cccc(NC=C(C(C)=O)C(C)=O)c1 [Compound 26] | 336 | 1035 | – | – |
| COc1ccc(C(=O)CC(=O)c2ccc(C(C)(C)C)cc2)cc1 [PARSOL 1789, 4-(1,1-dimethylethyl)-4-methoxy-dibenzoylmethane] | – | – | – | not sufficiently photochemically stable |

Continued, in another order:

| λmax ([1]; Table 2) | E^11 ([1]; Table 2) | Structure (SMILES) | E^11 ([1]; Table 2, (water)) | photochemical stability [2] |
| --- | --- | --- | --- | --- |
| 346 | 1049 | CCCCC(CC)COC(=O)c1ccc(NC=C(C(C)=O)C(C)=O)cc1 (stereo not drawn) [Compound 27] | – | – |
| 346 | 757 | CCCCC(CC)COC(=O)c1ccccc1NC=C(C(C)=O)C(=O)CC (stereo not drawn) [Compound 28] | – | – |
| 346 | 941 | CCCCC(CC)COC(=O)c1ccc(NC=C(C(C)=O)C(=O)OC)cc1 (stereo not drawn) [Compound 29] | – | – |
| 344 | 1008 | COC(=O)/C(=C\Nc1ccccc1C(=O)OC)C(C)=O [Compound 30] | – | – |
| 344 | 717 | CCCCC(CC)COC(=O)c1ccccc1NC=C(C(C)=O)C(=O)OC(C)(C)C (stereo not drawn) [Compound 31] | – | – |
| 346 | 646 | CCCCC(CC)COC(=O)C(C#N)=CNc1ccc(OC)cc1OC (stereo not drawn) [Compound 32] | – | – |
| 350 | 612 | CCCCC(CC)COC(=O)C(C#N)=CNc1cc(OC)ccc1OC (stereo not drawn) [Compound 33] | – | – |
| 322 | 761 | CCCCC(CC)COC(=O)C(C#N)=CNc1cc(OC)cc(OC)c1 (stereo not drawn) [Compound 34] | – | – |
| 332 | 1105 | CCCCC(CC)COC(=O)C(C#N)=CNc1ccc(C(=O)OCC)cc1 (stereo not drawn) [Compound 35] | – | – |
| 336 | 752 | CCCCC(CC)COC(=O)C(C#N)=CNc1ccccc1C(=O)OC (stereo not drawn) [Compound 36] | – | – |
| 336 | 890 | CCOC(=O)C(=CNc1ccccc1C(=O)OC)C(=O)OCC [Compound 37] | – | – |
| 335 | 630 | CCCCC(CC)COC(=O)c1ccccc1NC=C(C(=O)OCC)C(=O)OCC (stereo not drawn) [Compound 38] | – | – |
| 320 | 700 | CCCCC(CC)COC(=O)c1ccc(NC=C(C(=O)OCC)C(=O)OCC)cc1 (stereo not drawn) [Compound 39] | – | – |
| 358 | 743 | CCCCC(CC)COC(=O)c1ccccc1NC=C1CCC(C)(C)CC1=O (stereo not drawn) [Compound 40] | – | – |
| 330 | 1191 | CCCCC(CC)COC(=O)c1ccc(NC=C(C#N)C#N)cc1 (stereo not drawn) [Compound 41] | – | – |
| 374 | 1175 | CCCCC(CC)COC(=O)c1ccc(NC=C2C(=O)c3ccccc3C2=O)cc1 (stereo not drawn) [Compound 42] | – | – |
| 362 | 869 | CCCCC(CC)COC(=O)c1ccc(NC=C(C#N)C(=O)c2ccccc2)cc1 (stereo not drawn) [Compound 43] | – | – |
| 336 | 896 | CCCCC(CC)COC(=O)c1ccc(NC=C2C(=O)OC(C)(C)OC2=O)cc1 (stereo not drawn) [Compound 44] | – | – |
